{
  "source": "patent US20120321609A1",
  "about": "“METHOD OF TREATING PSYCHOLOGICAL DISORDERS” (priority 2011, published 2012)",
  "key": {"CRFR1": {"target": "T1, CRFR1 (Homo sapiens, UniProt P34998)", "T1 construct": "expressed in transfected cells; host or cells: HEK 293", "T1 sequence (P34998 24-415)": "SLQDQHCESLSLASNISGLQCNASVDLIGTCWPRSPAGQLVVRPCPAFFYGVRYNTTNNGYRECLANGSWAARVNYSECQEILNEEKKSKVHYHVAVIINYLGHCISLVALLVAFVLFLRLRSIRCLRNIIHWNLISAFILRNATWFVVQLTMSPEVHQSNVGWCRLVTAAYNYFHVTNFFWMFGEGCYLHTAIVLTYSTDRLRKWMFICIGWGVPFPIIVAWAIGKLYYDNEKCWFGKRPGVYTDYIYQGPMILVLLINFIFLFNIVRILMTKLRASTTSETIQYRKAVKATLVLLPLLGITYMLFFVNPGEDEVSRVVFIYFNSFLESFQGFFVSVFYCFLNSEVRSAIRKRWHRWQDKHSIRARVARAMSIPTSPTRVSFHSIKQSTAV", "experiment": "CRF-stimulated cAMP formation (cAMP-Glo) in HEK 293 cells with FLAG-5-HT2AR and HA-CRFR1", "format": "cell-based", "details": "5-HT 10 μM pretreatment 30 min", "description": "Briefly, HEK 293 cells transiently expressing FLAG-5-HT2AR and HA-CRFR1 were seeded into 96-well plate (10,000 cells/well). Two days after transfection, cells were incubated in the absence or presence of 10 μM 5-HT in induction buffer [HBSS, 500 μM isobutyl-1-methylxanthine (IBMX)] for 30 minutes at 37° C. […] Following stimulation, cells were solubilized with cAMP-Glo lysis buffer for 15 minutes with gentle shaking at room temperature. Lysates were carefully transferred to a white opaque 96-well plate and cAMP-Glo Detection solution containing protein kinase A was added for 20 minutes at room temperature followed by addition of Kinase-Glo Reagent for 10 min. Luminescence was measured using a Victor Reader (Perkin-Elmer, Walthan, Mass.)."}, "mice [1]": {"system": "mice", "experiment": "Open field test (anxiety-related behaviour)", "format": "in vivo, mouse", "details": "5 min test; CRF 1.5 μg into medial prefrontal cortex, DOI 0.15 mg/kg i.p.; vs vehicle-vehicle or single treatment", "description": "Male CD-1 mice were obtained from Charles River Canada (St. Constant, Quebec) at 50-60 days of age, and were acclimatized to the laboratory for approximately 30 days before serving as experimental subjects. Mice were housed four per cage, until the time of surgery, after which they were housed individually. The vivarium was maintained on a 12-h light/dark cycle in a temperature (21° C.) controlled room with food and water freely available. Mice were anesthetized using isoflurane and stereotaxic surgery (David Kopf Instruments Model 940) was performed to install a cannulae into the medial prefrontal cortex. A Guide cannulae (Plastics One In), situated according to the mouse atlas of Franklin and Paxinos at Lateral=0.32 mm, D/V=2.25 mm, A/P=+2.68 mm. A dummy cannula, was inserted flush with guide. Approximately 1 week after behavioral testing mice were perfused with 4% paraformaldehyde. […]\nIn an initial test, mice were placed in a 45×45 cm open field, with an inner square of 21×24×24 cm., for a 5 min period, during which the time to enter the center area, and the total time spent in the center portion of the arena was recorded. […] Mice were individually placed in one of the enclosed arms of a plus-maze and the behavior of the animals was recorded over a 5 min period by a ceiling-mounted video camera. […]"}, "mice [2]": {"system": "mice", "experiment": "Elevated plus maze test (anxiety-related behaviour)", "format": "in vivo, mouse", "details": "DOI 0.15 mg/kg i.p.; for entries to the closed arms of the plus maze: relative to vehicle", "description": "Male CD-1 mice were obtained from Charles River Canada (St. Constant, Quebec) at 50-60 days of age, and were acclimatized to the laboratory for approximately 30 days before serving as experimental subjects. Mice were housed four per cage, until the time of surgery, after which they were housed individually. The vivarium was maintained on a 12-h light/dark cycle in a temperature (21° C.) controlled room with food and water freely available. Mice were anesthetized using isoflurane and stereotaxic surgery (David Kopf Instruments Model 940) was performed to install a cannulae into the medial prefrontal cortex. A Guide cannulae (Plastics One In), situated according to the mouse atlas of Franklin and Paxinos at Lateral=0.32 mm, D/V=2.25 mm, A/P=+2.68 mm. A dummy cannula, was inserted flush with guide. Approximately 1 week after behavioral testing mice were perfused with 4% paraformaldehyde. Brains were subsequently sectioned at 14 microns and stained with Cresyl violet for probe placement verification. Only the data from mice with correct probe placements were used in the analysis of the behavioral tests.\nDrug diffusion was permitted for 5 min, and then after a further 5 min period mice were injected intraperotineally with DOI (Sigma) at a dose of 0.15 mg/kg or saline. Behavioral testing was conducted 15 min after the DOI treatment. In a second experiment the procedure was identical to that of the preceding study, except that mice were pretreated i.p. with either vehicle or 0.25 mg/kg of M100907 in a volume of 0.3 ml immediately prior to the DOI treatment. As in the preceding study mice were then tested in the elevated plus maze test (n=6-8)/group. Once again, data were obtained from videotapes and the researcher was blind as to the treatments mice had received.\nIn an initial test, mice were placed in a 45×45 cm open field, with an inner square of 21×24×24 cm., for a 5 min period, during which the time to enter the center area, and the total time spent in the center portion of the arena was recorded. The plus maze test was then conducted 1 min after the open field assessment. Mice were individually placed in one of the enclosed arms of a plus-maze and the behavior of the animals was recorded over a 5 min period by a ceiling-mounted video camera. The amount of time spent in each of the arms, the number of arm entries (an arm entry was defined as all four of the paws being placed in an arm of the plus-maze). The elevated plus-maze had two arms enclosed by 21 cm high walls; whereas the remaining two arms were open (arms were 24.8 cm long×7.7 cm wide). The maze was situated in a dimly lit room, such that the closed arms were darkened, whereas open arms were somewhat illuminated. All behavioural experiments were blinded. All experiments complied with the guidelines set by the Canadian Council on Animal Care and were approved by the Carleton University Animal Care Committee."}, "mice [3]": {"system": "mice", "experiment": "Elevated plus maze test (anxiety-related behaviour)", "format": "in vivo, mouse", "details": "DOI doses 0.625 and 1.25; data not shown"}, "5-HT2AR": {"target": "T2, 5-HT2AR (Homo sapiens, UniProt P28223)", "T2 construct": "expressed in transfected cells; host or cells: HEK 293", "T2 sequence (P28223 whole entry)": "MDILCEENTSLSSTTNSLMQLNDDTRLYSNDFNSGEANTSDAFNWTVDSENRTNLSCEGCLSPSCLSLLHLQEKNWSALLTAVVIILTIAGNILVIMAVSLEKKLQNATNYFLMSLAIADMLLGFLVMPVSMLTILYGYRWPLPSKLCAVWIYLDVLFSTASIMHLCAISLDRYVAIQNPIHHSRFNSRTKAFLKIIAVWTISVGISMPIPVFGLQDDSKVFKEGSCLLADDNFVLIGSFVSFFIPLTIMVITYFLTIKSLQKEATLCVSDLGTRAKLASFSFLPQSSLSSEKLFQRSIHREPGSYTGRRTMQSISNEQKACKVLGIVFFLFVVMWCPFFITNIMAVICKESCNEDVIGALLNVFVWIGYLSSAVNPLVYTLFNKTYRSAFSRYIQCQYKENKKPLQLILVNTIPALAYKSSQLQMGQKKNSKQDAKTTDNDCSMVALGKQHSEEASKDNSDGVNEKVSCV", "experiment": "5-HT-stimulated inositol phosphate formation in HEK 293 cells transfected with FLAG-5-HT2AR and HA-CRFR1", "format": "cell-based", "details": "for effect on the CRFR1-dependent increase in 5-HT2AR-stimulated inositol phosphate formation following CRF pretreatment: CRF 500 nM 30 min, monensin 100 μM 30 min, Tat peptide 1 h pretreatment, or co-expressed dominant-negative protein"}, "[4]": {"target": "endogenous CRFR1 of mouse prefrontal cortex (mouse) (UniProt P35347)"}, "HA-CRFR1 [5]": {"target": "HA-CRFR1"}, "HA-CRFR1 [6]": {"target": "HA-CRFR1", "remark": "listed apart in the source"}, "[7]": {"details": "first experiment, CRF 1.5 μg into medial prefrontal cortex"}, "[8]": {"details": "second experiment (M100907 study), CRF 1.5 μg mPFC, M100907 0.25 mg/kg i.p."}},
  "note": "Ends that are not written are not given here.",
  "data": [
    {"molecule": "NCCc1c[nH]c2ccc(O)cc12", "note": "[5-HT, serotonin]", "values": [
      {"measurement": "effect of pretreatment on CRFR1 responsiveness (CRFR1-mediated cAMP formation)", "setting": "CRFR1", "value": "had no effect"}
    ]},
    {"molecule": "COc1cc(CC(C)N)c(OC)cc1I", "note": "(stereo not shown) [DOI, 2,5-dimethoxy-4-iodoamphetamine]", "values": [
      {"measurement": "latency to enter the center square of open field", "setting": "mice [1]", "value": "neither the CRF nor the DOI treatments alone influenced performance"},
      {"measurement": "latency to enter an open arm of the plus maze", "setting": "mice [2]; [7]", "value": "modest reduction"},
      {"measurement": "number of entries into the closed arms of the plus maze", "setting": "mice [2]; [7]", "value": "did not vary"},
      {"measurement": "number of entries onto the open arms of the plus maze", "setting": "mice [2]; [7]", "value": "modest reduction"},
      {"measurement": "frequency of open arm entries in the plus maze", "setting": "mice [2]; [8]", "value": "neither CRF nor DOI alone affected the frequency of open arm entries"},
      {"measurement": "latency to enter the open arms of the plus maze", "setting": "mice [2]; [8]", "value": "did not influence the latencies"},
      {"measurement": "time spent in the closed arms of the plus maze", "setting": "mice [2]; [8]", "value": "unaffected"},
      {"measurement": "entries to the closed arms of the plus maze", "setting": "mice [2]; [8]", "value": "increased closed arm entries"},
      {"measurement": "arm entries at significantly higher doses of DOI", "setting": "mice [3]", "value": "elevated arm entries"}
    ]},
    {"molecule": "COc1cccc([C@H](O)C2CCN(CCc3ccc(F)cc3)CC2)c1OC", "note": "[M100907]", "values": [
      {"measurement": "frequency of open arm entries in the plus maze", "setting": "mice [2]; [8]", "value": "did not make any entries onto the open arm"},
      {"measurement": "latency to enter the open arms of the plus maze", "setting": "mice [2]; [8]", "value": "none of the mice entered the open arms"},
      {"measurement": "time spent in the closed arms of the plus maze", "setting": "mice [2]; [8]", "value": "increased"},
      {"measurement": "time spent in the open arms of the plus maze", "setting": "mice [2]; [8]", "value": "profoundly influenced"},
      {"measurement": "entries to the closed arms of the plus maze", "setting": "mice [2]; [8]", "value": "reduced the frequency of arm entries"}
    ]},
    {"molecule": "CC[C@@]1([C@@H]2O[C@@H]([C@H]3O[C@@](O)(CO)[C@H](C)C[C@@H]3C)C[C@@H]2C)CC[C@H]([C@]2(C)CC[C@]3(C[C@H](O)[C@@H](C)[C@@H]([C@@H](C)[C@@H](OC)[C@H](C)C(=O)O)O3)O2)O1", "note": "[monensin]", "values": [
      {"measurement": "effect on the CRFR1-dependent increase in 5-HT2AR-stimulated inositol phosphate formation following CRF pretreatment", "setting": "5-HT2AR", "value": "attenuated the increase in 5-HT2AR signaling"},
      {"measurement": "effect on 5-HT2AR signaling in the absence of CRF pretreatment", "setting": "5-HT2AR; monensin 100 μM for 30 min, no CRF", "value": "did not affect 5-HT2AR signaling"}
    ]},
    {"molecule": "Dynamin I-K44A: dominant-negative inhibitor of clathrin-mediated endocytosis, expressed in cells (protein, UniProt Q05193 1-864, looked up, variant K44A) Dynamin-1: MGNRGMEDLIPLVNRLQDAFSAIGQNADLDLPQIAVVGGQSAGASSVLENFVGRDFLPRGSGIVTRRPLVLQLVNATTEYAEFLHCKGKKFTDFEEVRLEIEAETDRVTGTNKGISPVPINLRVYSPHVLNLTLVDLPGMTKVPVGDQPPDIEFQIRDMLMQFVTKENCLILAVSPANSDLANSDALKVAKEVDPQGQRTIGVITKLDLMDEGTDARDVLENKLLPLRRGYIGVVNRSQKDIDGKKDITAALAAERKFFLSHPSYRHLADRMGTPYLQKVLNQQLTNHIRDTLPGLRNKLQSQLLSIEKEVEEYKNFRPDDPARKTKALLQMVQQFAVDFEKRIEGSGDQIDTYELSGGARINRIFHERFPFELVKMEFDEKELRREISYAIKNIHGIRTGLFTPDMAFETIVKKQVKKIREPCLKCVDMVISELISTVRQCTKKLQQYPRLREEMERIVTTHIREREGRTKEQVMLLIDIELAYMNTNHEDFIGFANAQQRSNQMNKKKTSGNQDEILVIRKGWLTINNIGIMKGGSKEYWFVLTAENLSWYKDDEEKEKKYMLSVDNLKLRDVEKGFMSSKHIFALFNTEQRNVYKDYRQLELACETQEEVDSWKASFLRAGVYPERVGDKEKASETEENGSDSFMHSMDPQLERQVETIRNLVDSYMAIVNKTVRDLMPKTIMHLMINNTKEFIFSELLANLYSCGDQNTLMEESAEQAQRRDEMLRMYHALKEALSIIGDINTTTVSTPMPPPVDDSWLQVQSVPAGRRSPTSSPTPQRRAPAVPPARPGSRGPAPGPPPAGSALGGAPPVPSRPGASPDPFGPPPQVPSRPNRAPPGVPSRSGQASPSRPESPRPPFDL", "values": [
      {"measurement": "effect on the CRFR1-dependent increase in 5-HT2AR-stimulated inositol phosphate formation following CRF pretreatment", "setting": "5-HT2AR", "value": "completely eliminated"}
    ]},
    {"molecule": "Rab11-S25N: dominant negative Rab11 protein inhibiting receptor recycling via slow recycling endosomes (protein, UniProt P62491 2-213, looked up, variant S25N) Ras-related protein Rab-11A: GTRDDEYDYLFKVVLIGDSGVGKNNLLSRFTRNEFNLESKSTIGVEFATRSIQVDGKTIKAQIWDTAGQERYRAITSAYYRGAVGALLVYDIAKHLTYENVERWLKELRDHADSNIVIMLVGNKSDLRHLRAVPTDEARAFAEKNGLSFIETSALDSTNVEAAFQTILTEIYRIVSQKQMSDRRENDMSPSNNVVPIHVPPTTENKPKVQCC", "values": [
      {"measurement": "effect on the CRFR1-dependent increase in 5-HT2AR-stimulated inositol phosphate formation following CRF pretreatment", "setting": "5-HT2AR", "value": "but not the overexpression of Rab11-S25N, blocked the increase"}
    ]},
    {"molecule": "SEEPPISLDLTFHLLREVLEMARAEQLAQQAHSNRKLMEII (ligand, UniProt P06850 154-194, looked up, species assumed, ends and bridges not checked)", "note": "[corticotropin releasing factor (CRF) peptide]", "values": [
      {"measurement": "5-HT-stimulated inositol phosphate formation in prefrontal cortex slices", "setting": "[4]", "value": 2.3, "unit": "fold"},
      {"measurement": "cell surface expression of 5-HT2AR (biotinylation)", "setting": "HA-CRFR1 [5]", "value": 3.7, "unit": "fold"},
      {"measurement": "loss of cell surface HA-CRFR1 (flow cytometry)", "setting": "HA-CRFR1 [6]", "value": 24, "unit": "%"}
    ]}
  ]
}
